In brackets after ≈: the same amount, converted by molar mass.
Key:
[1] = system: herpes simplex virus (HSV) type 2; details: cited from earlier work
[2] = system: cytomegalovirus (CMV); details: CMV having no thymidine kinase (TK); Clinic and Study, vol. 70, No.8 (1993); cited from earlier work
[3] = system: herpes simplex virus (HSV) type 1; details: cited from earlier work
[4] = system: TK⁺VZV YS strain; assay: Assay for antiviral activity (plaque formation in HEL cells); assay type: cell-based, Varicella-zoster virus (VZV); details: Human alphaherpesvirus 3, HEL, 120 h, read-out: Antiviral Activity IC₅₀ (µg/mL)
Procedure: (§1) The nucleoside derivative of the invention is further examined in antivairal activity to varicella-zoster virus (VZV) and cytotoxicity by the following tests.
(§2) Human embryonic lung fibroblast (HEL cell, ATCC CCL-137)
(§3) Culture: The cell is cultured in a minimum essential medium (MEM, Gibco) supplemented with 10% inactivated bovine fetal serum, 1% L-glutamine, and 0.3% sodium hydrogen carbonate.
(§4) • (a) Thymidine kinase-positive (TK⁺) strain OKA & YS • (b) Thymidine kinase-deficient (TK⁻) strain YS/R & 07/1
(§5) Cells cultured on a 96-well microtiter plate are inoculated with the virus at an input of 20 plaque formation units (PFU). The cultured cells are incubated at 37°C for 2 hours. Subsequently, remaining virus is removed, and the incubated cells are again cultured in a MEM medium to which are added the test compound, 10% inactivated bovine fetal serum, 1% L-glutamine, and 0.3% sodium hydrogen carbonate in duplicate. After five days culture, the microtiter plate is fixed by ethanol, stained by Giemsa staining method, and microscopically observed for measurement of number of plaques formed. The results are indicated by IC₅₀ (i.e., concentration at which the plaque formation by virus is inhibited by 50%.

[5] = system: TK⁻VZV 07/1 strain; assay: as above; assay type: cell-based, Varicella-zoster virus (VZV); details: Human alphaherpesvirus 3, HEL, 120 h, read-out: Antiviral Activity IC₅₀ (µg/mL)
Procedure: as §1, §2, §3, §4, §5

[6] = system: TK⁺VZV OKA strain; assay: as above; assay type: cell-based, Varicella-zoster virus (VZV); details: Human alphaherpesvirus 3, HEL, 120 h, read-out: Antiviral Activity IC₅₀ (µg/mL)
Procedure: as §1, §2, §3, §4, §5

[7] = system: TK⁻VZV YS/R strain; assay: as above; assay type: cell-based, Varicella-zoster virus (VZV); details: Human alphaherpesvirus 3, HEL, 120 h, read-out: Antiviral Activity IC₅₀ (µg/mL)
Procedure: as §1, §2, §3, §4, §5

[8] = Assay for cytotoxicity (cell growth, Coulter Counter); assay type: cell-based; details: human; HEL cells; 3 days incubation; cell growth inhibited by 50%; read-out: Cytotoxicity CC₅₀
Procedure: as §2, §3
HEL cellls of 3 x 10³ cells/well are seeded into a 96 well microtiter plate and allowed to proliferate in a MEM medium containing 10% inactivated bovine fetal serum at 37°C for 24 hours. Subsequently, the medium is changed into a MEM medium containing different concentrations of the tested compound, and then the incubation is continued for another 3 days. When monolayer cells are grown to 70%, number of cells is countered by Coulter Counter. The cytotoxicity is indicated by CC₅₀ (i.e., concentration at which the cell growth is inhibited by 50%.).

| SMILES | concentration showing inhibitory effect [1] | effectiveness to cytomegalovirus (CMV) [2] | concentration showing inhibitory effect [3] | IC50 [4] | IC50 [5] | IC50 [6] | IC50 [7] | CC50 at 72 h [8] |
| --- | --- | --- | --- | --- | --- | --- | --- | --- |
| Nc1nc2c(ncn2COCCO)c(=O)[nH]1 [Acyclovir] | less than 0.05 µL/mL | not effective | less than 0.05 µL/mL |  |  |  |  |  |
| Nc1ncnc2c1ncn2[C@@H]1O[C@H](COC2(c3ccccc3)c3ccccc3Oc3ccccc32)[C@@H](OC2(c3ccccc3)c3ccccc3Oc3ccccc32)[C@H]1OC1CCCCO1 (some centres unmarked) [Example 2, 2'-O-Tetrahydropyranyl-3',5'-O-di(9-phenylxanthenyl)adenosine] |  |  |  | 1 µg/mL (≈ 1.16 µM) | 0.8 µg/mL (≈ 0.926 µM) | 2 µg/mL (≈ 2.31 µM) | 2 µg/mL (≈ 2.31 µM) | > 50 µg/mL |

Reference: patent EP0617046A1, “Nucleoside derivatives and antiherpes composition” (NIPPON CHEMIPHAR CO., LTD., priority 1993, dated 1994)
